Laboratory results as given in ChEMBL document CHEMBL1127803 (J Med Chem, 1994).
Where a SMILES comes first, the peptide text is derived from it. [ ]: non-standard residue; d: D form. The star is where a group is joined. Tyr(Nα,Nα-allyl2) = C=CCN(CC=C)[C@@H](Cc1ccc(O)cc1)C(=O)*; Aib = CC(C)(N)C(=O)O

What was measured:
Mu-type opioid receptor [1] = target: Mu-type opioid receptor (Rattus norvegicus, UniProt P33535); assay: Evaluated for inhibition of [3H]DAMGO binding from mu receptor in rat brain membranes; assay type: cell membranes
Mu-type opioid receptor [2] = target: Mu-type opioid receptor (Cavia porcellus, UniProt P97266); assay: Tested for agonist activity against mu opioid receptor in guinea pig ileum; assay type: functional, tissue-based
[3] = target: T1, Delta-type opioid receptor (Mus musculus, UniProt P32300); assay: Tested for inhibition of binding of [3H]DADLE to mouse brain membranes depleted of mu binding sites by pretreatment with irreversible ligand BIT for delta opioid receptor; set-up: species or system Membrane
[4] = target: T1, Delta-type opioid receptor; assay: Tested for agonist activity against delta opioid receptor mouse vas deferens; assay type: functional, tissue-based

Sequence of Mu-type opioid receptor (Cavia porcellus, UniProt P97266) (P97266 whole entry): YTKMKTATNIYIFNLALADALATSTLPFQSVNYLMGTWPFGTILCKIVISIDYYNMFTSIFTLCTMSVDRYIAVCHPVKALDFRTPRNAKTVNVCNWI
Sequence of Mu-type opioid receptor (Rattus norvegicus, UniProt P33535) (P33535 whole entry): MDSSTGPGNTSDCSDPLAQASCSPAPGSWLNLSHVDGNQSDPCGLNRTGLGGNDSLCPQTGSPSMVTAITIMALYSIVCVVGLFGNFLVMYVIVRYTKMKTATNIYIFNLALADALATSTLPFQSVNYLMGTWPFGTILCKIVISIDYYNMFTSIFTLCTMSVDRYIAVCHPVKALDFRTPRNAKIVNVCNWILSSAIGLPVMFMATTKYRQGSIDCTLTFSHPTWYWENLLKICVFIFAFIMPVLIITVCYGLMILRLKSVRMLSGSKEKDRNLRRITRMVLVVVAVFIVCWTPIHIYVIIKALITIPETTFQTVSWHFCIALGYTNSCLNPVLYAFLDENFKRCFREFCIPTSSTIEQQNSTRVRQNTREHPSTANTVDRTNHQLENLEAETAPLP
T1 sequence (P32300 whole entry): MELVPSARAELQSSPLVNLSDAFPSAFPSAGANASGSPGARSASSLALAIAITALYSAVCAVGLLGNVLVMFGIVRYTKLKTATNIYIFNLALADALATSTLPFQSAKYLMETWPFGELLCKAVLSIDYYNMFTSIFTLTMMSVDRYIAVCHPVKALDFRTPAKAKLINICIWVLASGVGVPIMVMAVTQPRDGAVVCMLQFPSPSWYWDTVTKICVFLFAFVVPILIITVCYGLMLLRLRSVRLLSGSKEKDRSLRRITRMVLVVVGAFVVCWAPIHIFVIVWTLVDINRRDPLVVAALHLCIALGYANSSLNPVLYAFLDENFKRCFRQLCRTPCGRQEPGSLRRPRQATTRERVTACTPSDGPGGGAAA

Structure (SMILES)	IC50 (Mu-type opioid receptor [1])	IC50 (Mu-type opioid receptor [2])	IC50 [3]	further results
C=CCN1C[C@H](C)N([C@@H](c2ccc(C(=O)N(CC)CC)cc2)c2cccc(OC)c2)C[C@H]1C	2.47 µM	5.46 µM	–	–
C=CCN1C[C@@H](C)N([C@H](c2ccc(C(=O)N(CC)CC)cc2)c2cccc(O)c2)C[C@@H]1C	–	–	0.00958 µM	–
C=CCN1C[C@@H](C)N([C@@H](c2ccc(C(=O)N(CC)CC)cc2)c2cccc(O)c2)C[C@@H]1C	–	–	0.00049 µM	–
C=CCN1CC(C)N(C(c2ccc(C(=O)N(CC)CC)cc2)c2cccc(O)c2)CC1C (racemic)	–	0.143 µM	0.00092 µM	IC50 [4]: 0.0002 µM
C=CCN1C[C@@H](C)N(C(c2ccc(C(=O)N(CC)CC)cc2)c2cccc(OC)c2)C[C@@H]1C (single isomer, unassigned)	9.14 µM	1.52 µM	–	–
C=CCN1CC(C)N([C@H](c2ccc(C(=O)N(CC)CC)cc2)c2cccc(OC)c2)CC1C (single isomer, unassigned) [SNC-80]	9.37 µM	–	–	–
C=CCN1C[C@H](C)N(C(c2ccc(C(=O)N(CC)CC)cc2)c2cccc(O)c2)C[C@H]1C (single isomer, unassigned; (+)-1)	–	–	0.00031 µM	–
C=CCN1C[C@H](C)N(C(c2ccc(C(=O)N(CC)CC)cc2)c2cccc(O)c2)C[C@H]1C (single isomer, unassigned; (+)-10)	–	–	0.00596 µM	–
C=CCN(CC=C)[C@@H](Cc1ccc(O)cc1)C(=O)NC(C)(C)C(=O)NC(C)(C)C(=O)N[C@@H](Cc1ccccc1)C(=O)N[C@@H](CC(C)C)C(=O)O.C=CCN1C[C@H](C)N([C@@H](c2ccc(C(=O)N(CC)CC)cc2)c2cccc(OC)c2)C[C@H]1C ({Tyr(Nα,Nα-allyl2)}-[Aib][Aib]FL-OH)	–	–	–	IC50 [4]: 3.25 µM
CC(C)[C@H](NC(=O)[C@H](CCC(=O)O)NC(=O)[C@H](Cc1ccccc1)NC(=O)[C@@H](C)NC(=O)[C@@H](N)Cc1ccc(O)cc1)C(=O)N[C@H](C(=O)NCC(=O)O)C(C)C [DELTORPHIN]	–	15 µM	–	–
C=CCN1C[C@H](C)N([C@H](c2ccc(C(=O)N(CC)CC)cc2)c2cccc(OC)c2)C[C@H]1C [SNC-80]	5.71 µM	–	–	–
